O=C1CCc2cc(OCCCCc3nnnn3C3CCCCC3)ccc2N1
solubility (mole fraction)
Settings	in 1,4-dioxane	in 2-butanone	in acetone	in acetonitrile	in ethanol	in ethyl acetate	in isopropanol	in methanol	in n-butanol	in n-propanol
273.15 K	–	0.00289	0.00168	0.0003	0.000168	0.000115	8.4e-05	0.000258	0.000437	0.000206
278.15 K	–	0.00345	0.00206	0.000506	0.000282	0.000205	0.000155	0.00041	0.000656	0.000334
283.15 K	–	0.00399	0.00244	0.000705	0.000406	0.00031	0.000233	0.000573	0.000907	0.000487
288.15 K	0.00525	0.00464	0.00287	0.000935	0.00054	0.000428	0.000324	0.000754	0.00119	0.000634
293.15 K	0.0061	0.00529	0.00332	0.00119	0.00069	0.000556	0.000421	0.000955	0.0015	0.000813
298.15 K	0.00708	0.006	0.00381	0.00151	0.000847	0.000704	0.000543	0.00117	0.00184	0.00098
303.15 K	0.00819	0.00677	0.00433	0.00187	0.00102	0.000861	0.000683	0.00141	0.00222	0.00116
308.15 K	0.0095	0.00774	0.00487	0.00226	0.00122	0.00102	0.000833	0.00166	0.00263	0.00136
313.15 K	0.0112	0.00881	0.00557	0.00273	0.00144	0.00119	0.000981	0.00193	0.00307	0.0016
